In patent US10815457B2, “Active CXCR4+ immune cells and methods for their production and use” (UNIVERSITY OF PITTSBURGH—OF THE COMMONWEALTH SYSTEM OF …, priority 2014, dated 2020):
“Also recorded” adds a separate entry of the source.

Key:
CXCR4 on NK cells = assay: CXCR4 expression on IL-12+IL-15-activated NK cells, by flow cytometry; type: cell-based; conditions: overnight with IL-12p70 (20 ng/ml) and IL-15 (20 ng/ml), 200 μM CoCl2
Method: Negatively Isolated (EasySep) NK cells were cultured overnight with NK cell activators, IL-12p70 (20 ng/ml) and IL-15 (20 ng/ml), in absence or presence of 200 μM CoCl2 (Hypoxia mimic; HIF1α activator). Absolute numbers (A) and percentage (B) of CXCR4 NK cells are calculated by flow cytometry and are depicted in the figure.

[1] = test system: CXCR4+/GZMB+ CD8+ T cells; assay: FACS staining for CXCR4 and GZMB in ex vivo induced CTLs exposed to a hypoxia mimic; type: cell-based, human
[2] = test system: CXCL12-responsive GZMB+ CD8+ T cells; assay: Chemotaxis of GZMB+ CD8+ T cells to recombinant CXCL12 (transwell); type: cell-based, human; conditions: 50 ng/ml CXCL12; cells primed with CD3/CD28 + IL-12 or type-1 polarized DCs, then DMOG

SMILES: [Cl][Co][Cl] [CoCl2, cobalt chloride]
- CXCR4 expression on NK cells (absolute numbers and percentage) (CXCR4 on NK cells): increases CXCR4 expression

SMILES: COC(=O)CNC(=O)C(=O)OC [DMOG, dimethyloxalylglycine]
- CXCR4 expression (CXCR4+/GZMB+ double positive CD8+ T cells) ([1]; CD3-CD28 beads +/- IL-12 (5 ng/ml) 6 days or type-1 polarized DCs, then 3 days with 200 μM DMOG): promote high levels of CXCR4; also recorded: increases CXCR4 expression
- intracellular GZMB expression in arising effector cells ([1]; CD8+ T cells primed in type-1-polarizing conditions, DMOG): without affecting the intracellular GZMB expression
- responsiveness to CXCL12 (migration of GZMB+ CD8+ T cells) [2]: highest migration of GZMB^+ CTL; also recorded: increases CXCR4 expression and responsiveness to CXCL12
